We go through one compound from patent US7081481B2, “Excitatory amino acid receptor modulators” (Eli Lilly and Company, priority 2000, dated 2006).

The target of this test is T1, mGluR^2 (Homo sapiens, UniProt Q14416).
T1 construct: expressed in transfected cells
The experiment in a line: [3H] LY341495 binding displacement at mGluR2. Particulars: cells expressing human mGluR subtypes, radioligand [3H] LY341495, read-out: Ki, reversal of [3H] LY341495 binding. An excerpt: (D. D. Schoepp, et al., Neuropharmacol., 1996, 35, 1661–1672 and 1997, 36, 1–11).
(LY341495 is described in Ornstein et al., J. Med. Chem., 1998, 41, 346–357 and J. Med. Chem., 1998, 41, 358 to 378).

pKi: −log10 of the molar value.

T1 sequence (Q14416 19-872): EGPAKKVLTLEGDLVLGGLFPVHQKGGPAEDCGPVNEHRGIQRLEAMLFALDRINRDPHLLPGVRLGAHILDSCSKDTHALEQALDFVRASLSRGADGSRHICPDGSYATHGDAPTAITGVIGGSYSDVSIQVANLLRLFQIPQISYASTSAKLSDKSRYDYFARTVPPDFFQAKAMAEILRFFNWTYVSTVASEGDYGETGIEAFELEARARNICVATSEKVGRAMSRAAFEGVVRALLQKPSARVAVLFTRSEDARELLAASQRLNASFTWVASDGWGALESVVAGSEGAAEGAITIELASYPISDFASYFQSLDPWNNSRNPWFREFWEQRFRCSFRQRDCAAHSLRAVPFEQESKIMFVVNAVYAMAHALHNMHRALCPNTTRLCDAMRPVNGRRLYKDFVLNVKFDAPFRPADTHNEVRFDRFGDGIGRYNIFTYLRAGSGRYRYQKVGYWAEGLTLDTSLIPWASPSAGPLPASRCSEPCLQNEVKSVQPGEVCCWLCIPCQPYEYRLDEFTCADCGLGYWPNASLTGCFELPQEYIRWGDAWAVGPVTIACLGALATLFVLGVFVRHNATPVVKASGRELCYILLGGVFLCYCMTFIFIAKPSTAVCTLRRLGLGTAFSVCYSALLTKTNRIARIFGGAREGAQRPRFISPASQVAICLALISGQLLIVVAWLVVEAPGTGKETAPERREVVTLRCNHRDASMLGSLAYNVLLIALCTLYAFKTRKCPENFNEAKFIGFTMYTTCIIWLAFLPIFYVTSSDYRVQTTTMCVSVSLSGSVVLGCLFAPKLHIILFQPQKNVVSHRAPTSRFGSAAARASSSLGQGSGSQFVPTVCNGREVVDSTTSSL

Take `N[C@@H](C(=O)O)[C@@H]1[C@H](COC(=O)Nc2ccccc2)[C@H]1C(=O)O` (racemic) [Example 1, (2SR,1′SR,2′RS,3′RS)-2-(3′-phenylcarbamoyloxymethyl-2′-carboxycyclopropyl)glycine]: the negative-log Ki (pKi) was 6.55.

As a reminder, the pKi is the Ki on a negative log10 scale, so that one unit is a factor of ten.
